According to patent US5962501A, “Enantiomer of carbazole derivative as 5-HT1-like agonists” (SmithKline Beecham, p.l.c., priority 1992, dated 1999):

Biological target: T1, 5-HT1 -like receptor (Oryctolagus cuniculus, UniProt P49144)
T1 construct: Arteries were then cut into ring segments (ca 4-5 mm wide) and set up for recording of isometric tension; from tissue; host or cells: rabbit basilar artery rings, endothelium removed
Assay: 5-HT1-like receptor screen, rabbit isolated basilar artery (cumulative concentration-effect curves, isometric tension)
Assay type: cell-based
Settings: in presence of ascorbate, indomethacin, cocaine, ketanserin and prazosin
Procedure: 5-HT1 -like Receptor Screen
In brief, rabbits were killed by overdose with anaesthetic (sodium pentobarbitone). The whole brain was quickly removed and immersed in ice cold modified Kreb's solution and the basilar artery removed with the aid of a dissecting microscope. […] The endothelium was removed by a gentle rubbing of the lumen with a fine metal wire. […] The arteries were then placed under a resting force of 3-4 mN maintained at 37° C. and the solution bubbled with 95% O2 /5% CO2.
After tests for initial reactivity with 90 mM KCl depolarising solution and for lack of acetylcholine-induced relaxation of 5-HT ([…]) precontraction, cumulative concentration-effect curves ([…]) to 5-HT were constructed in the presence of ascorbate […], cocaine […], indomethacin […], ketanserin […] and prazosin […].
Following a 45-60 min wash period, cumulative concentration-effect curves to the test compounds or 5-HT (as a time match control) were constructed in the presence of ascorbate, indomethacin, cocaine, ketanserin and prazosin.

T1 sequence (P49144 whole entry): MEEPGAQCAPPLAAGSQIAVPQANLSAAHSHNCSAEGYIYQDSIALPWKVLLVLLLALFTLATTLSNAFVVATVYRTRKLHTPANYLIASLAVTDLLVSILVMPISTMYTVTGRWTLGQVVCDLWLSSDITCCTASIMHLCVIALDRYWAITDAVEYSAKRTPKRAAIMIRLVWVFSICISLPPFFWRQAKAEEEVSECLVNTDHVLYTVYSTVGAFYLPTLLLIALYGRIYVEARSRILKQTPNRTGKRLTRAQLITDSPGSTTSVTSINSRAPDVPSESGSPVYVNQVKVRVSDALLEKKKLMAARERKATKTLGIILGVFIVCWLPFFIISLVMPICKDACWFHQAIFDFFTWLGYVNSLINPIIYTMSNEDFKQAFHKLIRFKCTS

EC50: > 2000 nM
SMILES: CN[C@H]1CCc2[nH]c3ccc(C(N)=O)cc3c2C1 [Compound B, S-(-)-6-carboxamido-3-N-methylamino-1,2,3,4-tetrahydrocarbazole]
